# Patent US9169262B2, “Crystalline salts of Asenapine with organic di-acids and tri-acids” (SANDOZ AG, priority 2011, dated 2015)
# Counter-ions that a name gives are not always drawn.
# Columns and labels:
# [1] = Water uptake / hygroscopicity by dynamic vapor sorption; type: physicochemical; conditions: for hygroscopic nature: dynamic vapor sorption; for water uptake (dynamic vapor sorption): up to 95% rel. humidity, citrate: most uptake above 80% relative humidity
# Source text: The hygroscopic nature of the citrate salt was investigated by dynamic vapor sorption.
# [2] = Polymorphic stability: suspension equilibration in water, PXRD; type: physicochemical; conditions: 25° C., 600 rpm, two days
# [3] = Polymorphic stability: stirring in acetonitrile or organic solvent mixture, PXRD; conditions: for polymorph conversion in acetonitrile (PXRD): suspension in acetonitrile, room temperature, five days; for polymorph conversion in acetonitrile-acetone 1:1 (PXRD): suspension stirred at room/ambient temperature, four days
# Method: The stability test is carried out by stirring the sample salt at 600 rpm in an amount of approximately 0.1 g/ml acetonitrile and optionally water as defined above. After 96 hours of stirring, the salt is removed by filtration and is dried and then subjected to X-ray powder diffraction analysis.
# [4] = Solubility of Asenapine maleate in saturated solution (literature, Funke et al.); type: physicochemical; conditions: saturated aqueous solution, water, thermodynamic from solid; maleate solubility at 23° C., pH=4.4, translated into free base
# Source text: Certain crystalline addition salts of Asenapine, for instance a fumarate (EP 0569096), salts with sulfonic acids (WO98/54186), and a pamoate or hemipamoate salt (EP569096), are described in the literature. The pamoate salt is disclosed to be amorphous and the hemipamoate salt is a mixture of amorphous and crystalline phase, wherein the palmitate is described as oil. The marketed form is the maleate salt, which is disclosed to exist in polymorphic forms (WO 2006/106135). The known Asenapine salts have a low solubility in water.
# [5] = 23° C., pH=4.4; cited from earlier work
# [6] = listed as Asenapine citrate of the invention
hygroscopic nature [1],water uptake (dynamic vapor sorption) [1],polymorph conversion in water suspension (PXRD) [2],"polymorph conversion in water suspension (PXRD) [2, 6]",polymorph conversion in acetonitrile (PXRD) [3],"polymorph conversion in acetonitrile (PXRD) [3, 6]",polymorph conversion in water suspension (PXRD) ([2]; listed as crystalline malonate of the invention),polymorph conversion in acetonitrile-acetone 1:1 (PXRD) [3],polymorph conversion in acetonitrile-acetone 1:1 (PXRD) ([3]; listed as crystalline Asenapine malonate of the invention),solubility [4] [µg/mL],SMILES,concentration of saturated solution [5] [µg/mL]
not or only very slightly hygroscopic,about 1.5%,no phase transformation was observed,does not change its polymorphic form,no phase transformation was observed,does not change its polymorphic form,,,,,CN1C[C@H]2c3ccccc3Oc3ccc(Cl)cc3[C@@H]2C1.O=C(O)CC(O)(CC(=O)O)C(=O)O [crystalline Asenapine citrate form I],
completely non-hygroscopic,less than 0.2%,no phase transformation was observed,,,,no polymorph conversion was observed,no phase transformation was observed,No polymorph conversion,,CN1CC2c3ccccc3Oc3ccc(Cl)cc3C2C1.O=C(O)CC(=O)O (centres unmarked) [crystalline Asenapine malonate form I],
,,,,,,,,,~4100,CN1CC2c3ccccc3Oc3ccc(Cl)cc3C2C1 (centres unmarked) [maleate salt of Asenapine],5800
